US8148367B2 (Takeda Pharmaceutical Company Limited, priority 2008, dated 2012)

Biological target: T1, Recombinant human renin (Homo sapiens, UniProt P00797)
T1 construct: isolate the active form (residues 67-406); made in house; host or cells: FreeStyle 293-F cells, transient expression of pcDNA3.1(+)/hREN
T1 sequence (P00797 67-406): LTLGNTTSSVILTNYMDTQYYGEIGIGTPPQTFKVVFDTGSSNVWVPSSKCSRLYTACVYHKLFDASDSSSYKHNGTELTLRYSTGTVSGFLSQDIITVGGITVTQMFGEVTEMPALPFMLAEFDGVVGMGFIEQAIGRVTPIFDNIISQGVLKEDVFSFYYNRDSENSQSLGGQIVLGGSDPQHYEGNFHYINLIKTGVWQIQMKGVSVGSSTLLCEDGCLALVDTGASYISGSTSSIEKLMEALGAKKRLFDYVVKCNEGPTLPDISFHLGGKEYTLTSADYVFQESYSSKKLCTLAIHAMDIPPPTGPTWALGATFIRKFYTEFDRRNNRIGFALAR
Assay: In vitro enzymatic activity assay of renin inhibitors (fluorescence, QXL520/HiLyteFluo488 peptide substrate)
Assay type: biochemical
Conditions: recombinant human renin 3 nM, 1 μM substrate, pre-incubated 10 minutes at 37° C., incubation one hour, pH 7.4, 5% DMSO; read-out: IC50 of Exemplified Compounds Against Renin

Row | IC50 [µM] | Compound
1 | < 0.1 | Cc1ccccc1-n1c(-c2ccccc2)c(C(=O)N2CCNCC2)n(CCCNS(=O)(=O)c2ccccc2Cl)c1=O [Example 217, 2-Chloro-N-(3-(2-oxo-4-phenyl-5-(piperazine-1-carbonyl)-3-o-tolyl-2,3-dihydro-1H-imidazol-1-yl)propyl)benzenesulfonamide]
2 | 0.1 to 0.5 | COc1cc(-c2cc(Cn3c(C(=O)N4CCNCC4)c(-c4ccccc4)n(C4CCCCC4)c3=O)cc(-c3ccnc(OC)c3)n2)ccn1 [Example 17E, 1-Cyclohexyl-3-((2,6-di(2-methoxyl-pyridine-4-yl)pyridin-4-yl)methyl)-5-phenyl-4-(piperazine-1-carbonyl)-1H-imidazol-2(3H)-one]
3 | 0.5 to 1 | O=C(c1c(-c2ccccc2)n([C@H]2CCCC[C@H]2O)c(=O)n1Cc1cccc(Oc2ccccc2)c1)N1CCNCC1 [Example 152, 1-((1S,2R)-2-Hydroxycyclohexyl)-3-(3-phenoxybenzyl)-5-phenyl-4-(piperazine-1-carbonyl)-1H-imidazol-2(3H)-one]
4 | > 1 | Cc1ccccc1-n1c(-c2ccccc2)c(C(=O)N2CCNCC2)n(CCNS(=O)(=O)c2ccc(Cl)cc2)c1=O [Example 207, 4-Chloro-N-(2-(2-oxo-4-phenyl-5-(piperazine-1-carbonyl)-3-o-tolyl-2,3-dihydro-1H-imidazol-1-yl)ethyl)benzenesulfonamide]
5 | > 1 | COCCCOc1cccc(-n2c(-c3ccccc3)c(C(=O)N3CCNCC3)n(CCNC(=O)CC(C)C)c2=O)c1 [Example 184, N-(2-(3-(3-(3-Methoxypropoxy)phenyl)-2-oxo-4-phenyl-5-(piperazine-1-carbonyl)-2,3-dihydro-1H-imidazol-1-yl)ethyl)-3-methylbutanamide]
6 | 0.5 to 1 | O=C(c1c(-c2ccccc2)n(C2CCCCC2)c(=O)n1Cc1cc(Cl)nc(N2CCOCC2)c1)N1CCNCC1 [Example 90, 1-((2-Chloro-6-morpholinopyridin-4-yl)methyl)-3-cyclohexyl-4-phenyl-5-(piperazine-1-carbonyl)-1H-imidazol-2(3H)-one]
7 | 0.5 to 1 | COc1ccccc1NC(=O)NCCn1c(C(=O)N2CCNCC2)c(-c2ccccc2)n(-c2ccccc2C)c1=O [Example 214, 1-(2-Methoxyphenyl)-3-(2-(2-oxo-4-phenyl-5-(piperazine-1-carbonyl)-3-o-tolyl-2,3-dihydro-1H-imidazol-1-yl)ethyl)urea]
8 | > 1 | Cc1ccccc1-n1c(-c2ccccc2)c(C(=O)N2CCNCC2)n(CCCNC(=O)C(C)C)c1=O [Example 246, N-(3-(2-oxo-4-phenyl-5-(piperazine-1-carbonyl)-3-o-tolyl-2,3-dihydro-1H-imidazol-1-yl)propyl)isobutyramide]
9 | 0.1 to 0.5 | O=C(c1c(-c2ccccc2)n(C2CCCCC2)c(=O)n1CCc1ccccc1)N1CCNCC1 [Example 71, 1-Cyclohexyl-3-phenethyl-5-phenyl-4-(piperazine-1-carbonyl)-1H-imidazol-2(3H)-one]
10 | > 1 | CC1CN(C(=O)c2[nH]c(=O)n(C3CCCCC3)c2-c2ccccc2)CC(C)N1 (stereo not shown) [Example 40, 1-Cyclohexyl-4-(3,5-dimethylpiperazine-1-carbonyl)-5-phenyl-1H-imidazol-2(3H)-one]
11 | > 1 | C=CCn1c(C(=O)N2CCNCC2)c(-c2ccccc2)n(C2CCCCC2)c1=O [Example 62, 1-Allyl-3-cyclohexyl-4-phenyl-5-(piperazine-1-carbonyl)-1H-imidazol-2(3H)-one]
12 | 0.1 to 0.5 | COc1ccccc1-n1c(-c2ccccc2)c(C(=O)N2CCNCC2)n(Cc2cccc(OCCOc3ccccc3)c2)c1=O [Example 188, 1-(2-Methoxyphenyl)-3-(3-(2-phenoxyethoxy)benzyl)-5-phenyl-4-(piperazine-1-carbonyl)-1H-imidazol-2(3H)-one]
13 | 0.1 to 0.5 | COC1CCc2ccc(-n3c(-c4ccccc4)c(C(=O)N4CCNC[C@H]4Cc4ccccc4)[nH]c3=O)cc21 (stereo partly drawn) [Example 138, 4-((R)-2-Benzylpiperazine-1-carbonyl)-1-(3-methoxy-2,3-dihydro-1H-inden-5-yl)-5-phenyl-1H-imidazol-2(3H)-one]
14 | > 1 | COc1ccc(C(=O)NCCCn2c(C(=O)N3CCNCC3)c(-c3ccccc3)n(-c3ccccc3C)c2=O)cc1 [Example 245, 4-Methoxy-N-(3-(2-oxo-4-phenyl-5-(piperazine-1-carbonyl)-3-o-tolyl-2,3-dihydro-1H-imidazol-1-yl)propyl)benzamide]
15 | < 0.1 | O=C(c1[nH]c(=O)n(-c2ccc3c(c2)NCCC3)c1-c1ccccc1)N1CCNC[C@H]1Cc1ccccc1 [Example 132, (R)-4-(2-Benzylpiperazine-1-carbonyl)-5-phenyl-1-(1,2,3,4-tetrahydroquinolin-7-yl)-1H-imidazol-2(3H)-one]
16 | > 1 | COc1cccc(Cn2c(C(=O)N3CCNCC3)c(-c3ccccc3)n([C@H]3CCCC[C@H]3O)c2=O)c1 [Example 153, 1-((1S,2R)-2-Hydroxycyclohexyl)-3-(3-methoxybenzyl)-5-phenyl-4-(piperazine-1-carbonyl)-1H-imidazol-2(3H)-one]
17 | > 1 | O=C(c1[nH]c(=O)n(-c2ccccc2)c1-c1ccc(Cl)cc1)N1CCNCC1 [Example 28, 5-(4-Chlorophenyl)-1-phenyl-4-(piperazine-1-carbonyl)-1H-imidazol-2(3H)-one]
18 | > 1 | COC(=O)NCCn1c(C(=O)N2CCNCC2)c(-c2ccccc2)n(-c2ccccc2C)c1=O [Example 249, Methyl 2-(2-oxo-4-phenyl-5-(piperazine-1-carbonyl)-3-o-tolyl-2,3-dihydro-1H-imidazol-1-yl)ethylcarbamate]
19 | > 1 | C=CCn1c(C(=O)N2CCNCC2)c(-c2ccccc2)n(-c2ccccc2OC)c1=O [Example 145, 1-Allyl-3-(2-methoxyphenyl)-4-phenyl-5-(piperazine-1-carbonyl)-1H-imidazol-2(3H)-one]
20 | > 1 | CCCCN1CCCc2ccc(-n3c(C4CC4)c(C(=O)N4CCNC[C@H]4Cc4ccccc4)[nH]c3=O)cc21 [Example 133, (R)-4-(2-Benzylpiperazine-1-carbonyl)-1-(1-butyl-1,2,3,4-tetrahydroquinolin-7-yl)-5-cyclopropyl-1H-imidazol-2(3H)-one]
21 | > 1 | CC(C)CC(=O)NCCn1c(C(=O)N2CCNCC2)c(-c2ccccc2)n(C2CCCC[C@@H]2O)c1=O (stereo partly drawn) [Example 173, N-(2-(3-((2S)-2-Hydroxycyclohexyl)-2-oxo-4-phenyl-5-(piperazine-1-carbonyl)-2,3-dihydro-1H-imidazol-1-yl)ethyl)-3-methylbutanamide]
22 | 0.5 to 1 | O=C(c1[nH]c(=O)n(C2CCCN(S(=O)(=O)c3ccccc3)C2)c1-c1ccccc1)N1CCNCC1 (stereo not shown) [Example 98, 5-Phenyl-1-(1-(phenylsulfonyl)piperidin-3-yl)-4-(piperazine-1-carbonyl)-1H-imidazol-2(3H)-one]
23 | 0.5 to 1 | COCCCOc1cccc(-n2c(-c3ccccc3)c(C(=O)N3CCNCC3)[nH]c2=O)c1 [Example 35, 1-(3-(3-Methoxypropoxy)phenyl)-5-phenyl-4-(piperazine-1-carbonyl)-1H-imidazol-2(3H)-one]
24 | < 0.1 | O=C(NC[C@@H]1CNCCN1C(=O)c1[nH]c(=O)n(C2CCCCC2)c1-c1ccccc1)c1ccccc1 [Example 108, (S)—N-((1-(1-Cyclohexyl-2-oxo-5-phenyl-2,3-dihydro-1H-imidazole-4-carbonyl)piperazin-2-yl)methyl)benzamide]
25 | > 1 | O=C(c1cccc(Cn2c(C(=O)N3CCNCC3)c(-c3ccccc3)n(-c3cccc(N4CCOCC4)c3)c2=O)c1)N1CCOCC1 [Example 57, 1-(3-(Morpholine-4-carbonyl)benzyl)-3-(3-morpholinophenyl)-4-phenyl-5-(piperazine-1-carbonyl)-1H-imidazol-2(3H)-one]
26 | 0.5 to 1 | Cc1ccccc1-n1c(-c2ccccc2)c(C(=O)N2CCNCC2)n(CCNS(=O)(=O)c2ccccc2F)c1=O [Example 203, 2-Fluoro-N-(2-(2-oxo-4-phenyl-5-(piperazine-1-carbonyl)-3-o-tolyl-2,3-dihydro-1H-imidazol-1-yl)ethyl)benzenesulfonamide]
27 | > 1 | COCCCOc1cccc(-n2c(-c3ccccc3)c(C(=O)N3CCNCC3)n(CCCNC(=O)CC(C)C)c2=O)c1 [Example 181, N-(3-(3-(3-(3-Methoxypropoxy)phenyl)-2-oxo-4-phenyl-5-(piperazine-1-carbonyl)-2,3-dihydro-1H-imidazol-1-yl)propyl)-3-methylbutanamide]
28 | > 1 | Cc1ccccc1-n1c(-c2ccccc2)c(C(=O)N2CCNCC2)n(CCCNC(=O)C2CCCCC2)c1=O [Example 247, N-(3-(2-oxo-4-phenyl-5-(piperazine-1-carbonyl)-3-o-tolyl-2,3-dihydro-1H-imidazol-1-yl)propyl)cyclohexanecarboxamide]
29 | > 1 | O=C(c1c(-c2ccccc2)n(C2CCOCC2)c(=O)n1Cc1ccccc1)N1CCNCC1 [Example 81, 1-Benzyl-4-phenyl-5-(piperazine-1-carbonyl)-3-(tetrahydro-2H-pyran-4-yl)-1H-imidazol-2(3H)-one]
30 | > 1 | COCCOc1cccc(Cn2c(C(=O)N3CCNCC3)c(-c3ccccc3)n(-c3ccccc3OC)c2=O)c1 [Example 187, 1-(3-(2-Methoxyethoxy)benzyl)-3-(2-methoxyphenyl)-4-phenyl-5-(piperazine-1-carbonyl)-1H-imidazol-2(3H)-one]

Row | Compound | IC50 [µM]
31 | O=C(c1[nH]c(=O)n(-c2ccccc2)c1C1CC1)N1CCNCC1 [Example 24, 5-Cyclopropyl-1-phenyl-4-(piperazine-1-carbonyl)-1H-imidazol-2(3H)-one] | > 1
